The values that follow come from patent US20120041065A1, “LAURIC ACID DISTILLATE FOR ANIMAL FEED” (CAN TECHNOLOGIES, INC., priority 2010, published 2012).

The subject of one data set is grow-finish pigs. As to the kind of experiment: Fifth study: growth performance of grow-finish pigs fed HLAD, LA or BMD. The note with it: P<0.05.
Data set [1] concerns male broiler chickens (Ross 708). As to the kind of experiment: First study: growth performance and carcass evaluation in broilers fed HPKFAD or LA.
For data set [2] the test system is unchanged. The note with it: in vivo.
Data set [3] deals with pigs (initial BW of 9.98 lbs). As to the kind of experiment: Fourth study: nursery pig challenge model (dirty room) with LAD, Mecadox, calsporin. In kind it is in vivo. The note with it: severely challenged pigs; d 0 to 40. As for the experimental part:
A total of 96 pigs (initial BW of 9.98 lbs) were allotted to one of 8 treatments (12 replicates per treatment with 1 pigs per replicate). The treatments were 1) a negative control (NC) diet with no antibiotic (Ab), 2) a control diet with an Ab (Mecadox), 3) a diet with LAD at 0.25%, 4) a diet with LAD at 0.5%, 5) a diet with LAD at 1%, 6) a diet with calsporin, 7) a diet with calsporin and LAD at 1%, 8) and a diet with calsporin and LAD at 0.5%. Feed intakes and body weights were determined at the end of each feeding phase. […] Also, ZnO and CuSO4 were not added into the diet to enhance the challenge. The feeding phases were from d 0 to […], d 11 to 20, d 20 to 40. The data, especially from Phase 1 and 2, illustrated the pigs were severely challenged in this trial, which enhanced the effect of the antibiotic. […] The optimum level of LAD was 0.25% for the early growth period and increased to 0.50% for the later growth period. Accordingly, the recommended level of HLAD to be fed to nursery pigs is between 0.25% and 0.5%.

Data set [4] relates to broilers challenged with coccidia and Clostridia perfringens. Type of data set: in vivo.
Data set [5] deals with broilers challenged with coccidian vaccine and Clostridium Perfringens. In kind it is in vivo. The note with it: versus negative control; throughout the study.
The test system is the same in data set [6]. Type of data set: in vivo. To be noted: diets that contained papain relative to any other diet; P<0.05.

On to `CCCCCCCCCCCC(=O)O` [LA, lauric acid], for which the “ADFI, Phase 3” value in the data set on grow-finish pigs (LA at 0.1% relative to control diet or HLAD at 0.4%) is listed as “decreased”. Besides, the “overall ADFI” value was “numerically lower but not statistically significant” in data set [1] (LA 0.1% versus negative control, P=0.166); “decrease” in data set [1] (all non-zero LA treatments except 0.1% versus negative control); “decrease” in data set [1] (all non-zero treatments versus negative control, P 0.045). In addition, the “overall ADG” value in data set [1] (LA included at 0.2 and 0.4%, P 0.038) is listed as “decline in overall ADG”. Moreover, in data set [1] (LA treatments), the “breast and leg yield” value is reported as “did not so such an increase”. Further, in data set [1] (across inclusion levels, P<0.001), the “overall feed efficiency, dose response” value was “significant linear and plateau responses”. Moreover, the overall feed efficiency entry in data set [1] (included at 0.4 and 0.8% compared to negative control, P>0.016 as printed) was “improved”. Further, the “Average Hot Carcass Weight” value in data set [1] (non-zero treatments versus control, P≧0.111) is on record as “no differences”. Also, the “Average Breast Weight” value in data set [1] (non-zero treatments versus control, P≧0.236) is reported as “no treatment differences”. In addition, in data set [1] (non-zero treatments versus control, P≧0.267), the “Average Leg Weight” value is recorded as “no treatment differences”. Further, the “Percent Leg Yield” value in data set [1] (other HPKFAD and LA treatment comparisons, P≧0.195) is “No other treatment differences”. For the same molecule, the “Percent Breast Yield” value in data set [1] (other HPKFAD and LA treatment comparisons, P≧0.404) is “No other treatment differences”. Further, the “Removed Animals (Adverse Event), overall proportion of animals removed” value in data set [2] is reported as “no differences”.

Turning to `COC(=O)N/N=C/c1c[n+]([O-])c2ccccc2[n+]1[O-]` [Mecadox], the “performance (feed intakes and body weights)” value in data set [3] is recorded as “improved performance”.

Take bacitracin methylene disalicylate [BMD]: the “Feed efficiency, Phase 2” value in the data set on grow-finish pigs (antibiotic relative to LA at 0.1% or HLAD at 0.4%) is listed as “increased”. Also, the performance result in data set [4] (BMD) is on record as “only tended to improve performance”; in data set [5] it was “tended to have improved performance”. Further, the “feed intake, day 7” value in data set [4] (BMD relative to any other dietary treatment, P<0.05) is “higher”.

B1: papain: protease fed alone and in combination with hydrolyzed lauric acid (protein, UniProt P00784 134-345, looked up)
Papain: IPEYVDWRQKGAVTPVKNQGSCGSCWAFSAVVTIEGIIKIRTGNLNEYSEQELLDCDRRSYGCNGGYPWSALQLVAQYGIHYRNTYPYEGVQRYCRSREKGPYAAKTDGVRQVQPYNEGALLYSIANQPVSVVLEAAGKDFQLYRGGIFVGPCGNKVDHAVAAVGYGPNYILIKNSWGTGWGENGYIRIKRGTGNSYGVCGLYTSSFYPVKN
For the molecule B1, in data set [6], the ADG entry is reported as “decreased” and the Feed intake entry is reported as “decreased”.
